Several values for one entry are separate records, joined by “and”; a condition that tells them apart may be missing. Equal values may be shown once.
System: 349418-098-R-PDC complex spheroid growth
Test: Anticancer human tumor 349418-098-R-PDC patient-derived lung adenocarcinoma cell line growth inhibition [AhR]
Conditions: for viability, T/C: stronger effect = lower value
Method in brief: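 Spheroids combined tumor cells with HUVEC endothelial cells and human MSCs as stroma. AhR antagonists were paired with standard or investigational drugs, each dosed in half-log steps down from near clinical Cmax, or from 10 microM where Cmax was unknown.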

[1] = curve of first compound, second compound 0.1 µM
[2] = curve of first compound, second compound 0.316 µM
[3] = curve of first compound, second compound 1 µM
[4] = curve of first compound, second compound 3.16 µM
[5] = curve of first compound, second compound 10 µM
[6] = second compound 0.1 µM, first compound 0.0316 µM
[7] = second compound 0.1 µM, first compound 0.1 µM
[8] = second compound 0.1 µM, first compound 0.316 µM
[9] = second compound 0.1 µM, first compound 1 µM
[10] = second compound 0.1 µM, first compound 3.16 µM
[11] = second compound 0.1 µM, first compound 10 µM
[12] = second compound 0.316 µM, first compound 0.0316 µM
[13] = second compound 0.316 µM, first compound 0.1 µM
[14] = second compound 0.316 µM, first compound 0.316 µM
[15] = second compound 0.316 µM, first compound 1 µM
[16] = second compound 0.316 µM, first compound 3.16 µM
[17] = second compound 0.316 µM, first compound 10 µM
[18] = second compound 1 µM, first compound 0.0316 µM
[19] = second compound 1 µM, first compound 0.1 µM
[20] = second compound 1 µM, first compound 0.316 µM
[21] = second compound 1 µM, first compound 1 µM
[22] = second compound 1 µM, first compound 3.16 µM
[23] = second compound 1 µM, first compound 10 µM
[24] = second compound 3.16 µM, first compound 0.0316 µM
[25] = second compound 3.16 µM, first compound 0.1 µM
[26] = second compound 3.16 µM, first compound 0.316 µM
[27] = second compound 3.16 µM, first compound 1 µM
[28] = second compound 3.16 µM, first compound 3.16 µM
[29] = second compound 3.16 µM, first compound 10 µM
[30] = second compound 10 µM, first compound 0.0316 µM
[31] = second compound 10 µM, first compound 0.1 µM
[32] = second compound 10 µM, first compound 0.316 µM
[33] = second compound 10 µM, first compound 1 µM
[34] = second compound 10 µM, first compound 3.16 µM
[35] = second compound 10 µM, first compound 10 µM
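Also: spheroids exposed to agents for seven days before luminescence viability read.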
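For viability, T/C in this document: spheroids also contain HUVEC endothelial cells and human MSC stroma.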

| Compound | IC50 [1] [nM] | IC50 [2] [nM] | IC50 [3] [nM] | IC50 [4] [nM] | IC50 [5] [nM] | viability, T/C [6] [%] | viability, T/C [7] [%] | viability, T/C [8] [%] | viability, T/C [9] [%] | viability, T/C [12] [%] | viability, T/C [13] [%] | viability, T/C [14] [%] | viability, T/C [15] [%] | viability, T/C [18] [%] | viability, T/C [19] [%] | viability, T/C [20] [%] | viability, T/C [21] [%] | viability, T/C [24] [%] | viability, T/C [25] [%] | viability, T/C [26] [%] | further results |
| --- | --- | --- | --- | --- | --- | --- | --- | --- | --- | --- | --- | --- | --- | --- | --- | --- | --- | --- | --- | --- | --- |
| COc1cc(Nc2ncc3c(n2)-c2ccc(Cl)cc2C(c2c(F)cccc2OC)=NC3)ccc1C(=O)O + CC(CO)NC(=O)c1cc(-c2ccc(Cl)cc2)nn(-c2cnn(C)c2)c1=O | 92.5 | 47.4 | 107 | 47.3 | < 31.6 | 66.3 | 49.3 | 33.4 | 37.4 | 58.7 | 33.7 | 29.5 | 29.2 | 71.9 | 51.3 | 27.8 | 31.3 | 55.2 | 41.3 | 32.8 | viability, T/C [10]: 31.7%; viability, T/C [11]: 23.1%; viability, T/C [16]: 28.1%; viability, T/C [17]: 26%; viability, T/C [22]: 29.5%; viability, T/C [23]: 32%; viability, T/C [27]: 28%; viability, T/C [28]: 28.8%; viability, T/C [29]: 29.7%; viability, T/C [30]: 38.4%; viability, T/C [31]: 23.4%; viability, T/C [32]: 32%; viability, T/C [33]: 24.8%; viability, T/C [34]: 20.9%; viability, T/C [35]: 24.2% |
| COc1cccc2c1C(=O)c1c(O)c3c(c(O)c1C2=O)CC(O)(C(=O)CO)CC3OC1CC(N)C(O)C(C)O1 (configuration not stated) + Cc1ccccc1N=Nc1ccc(NC(=O)c2ccnn2C)c(C)c1 | < 31.6 | < 31.6 | < 31.6 | < 31.6 | < 31.6 | 25.2 | 19 | 5.76 | 0.44 | 21.5 | 17.8 | 5.6 | 1.97 | 24.3 | 19.2 | 6.34 | 0.81 | 23.6 | 18 | 6.45 | viability, T/C [10]: 4.06%; viability, T/C [11]: 7.47%; viability, T/C [16]: 4.18%; viability, T/C [17]: 7.15%; viability, T/C [22]: 4.84%; viability, T/C [23]: 6.54%; viability, T/C [27]: 0.66%; viability, T/C [28]: 4.34%; viability, T/C [29]: 6.09%; viability, T/C [30]: 20.4%; viability, T/C [31]: 15.6%; viability, T/C [32]: 4.32%; viability, T/C [33]: 1.12%; viability, T/C [34]: 3.09%; viability, T/C [35]: 7.07% |
| CC1COCCN1c1cc(-c2ccnn2C)c2ccnc(-c3ccn[nH]3)c2n1 (configuration not stated) | – | – | – | – | – | – | – | – | – | – | – | – | – | – | – | – | – | – | – | – | viability, T/C (compound 0.00316 µM): 107% and 93.3% and 81%; viability, T/C (compound 0.01 µM): 106% and 116% and 95.6%; viability, T/C (compound 0.0316 µM): 96.8% and 76.4% and 101%; viability, T/C (compound 0.1 µM): 64% and 45.4% and 42.6%; viability, T/C (compound 0.316 µM): 18.7% and 15.7% and 14.7%; viability, T/C (compound 1 µM): 7.38% and 10.8% and 9.29%; IC50 (curve of compound): 142 nM and 80.8 nM and 84.4 nM |
| Nc1ccccc1NC(=O)c1ccc(CNC(=O)OCc2cccnc2)cc1 + Cc1ccccc1N=Nc1ccc(NC(=O)c2ccnn2C)c(C)c1 | 1260 | 999 | 992 | 1010 | 919 | 104 | 97.7 | 75.7 | 64.6 | 84.6 | 85.3 | 72 | 52.1 | 97.7 | 76 | 87.2 | 47.6 | 86.5 | 82.5 | 76.5 | viability, T/C [10]: 19.4%; viability, T/C [11]: 5.78%; viability, T/C [16]: 17.2%; viability, T/C [17]: 5.9%; viability, T/C [22]: 18.5%; viability, T/C [23]: 6.58%; viability, T/C [27]: 50.1%; viability, T/C [28]: 18.5%; viability, T/C [29]: 5.98%; viability, T/C [30]: 66.4%; viability, T/C [31]: 60.9%; viability, T/C [32]: 68.1%; viability, T/C [33]: 48%; viability, T/C [34]: 17%; viability, T/C [35]: 8.83% |
| Nc1ncn(C2CC(O)C(CO)O2)c(=O)n1 (configuration not stated) + Cc1cncc(-c2nc(NCCc3c[nH]c4ccccc34)c3ncn(C(C)C)c3n2)c1 | 177 | 221 | 305 | < 3.16 | < 3.16 | 80.3 | 59.9 | 40.9 | 29.1 | 83.2 | 69.9 | 40.7 | 25.7 | 82.7 | 68.6 | 50.1 | 34.3 | 21.9 | 17.4 | 17.7 | viability, T/C (second compound 0.1 µM, first compound 0.00316 µM): 88.5%; viability, T/C (second compound 0.1 µM, first compound 0.01 µM): 97.9%; viability, T/C (second compound 0.316 µM, first compound 0.00316 µM): 93%; viability, T/C (second compound 0.316 µM, first compound 0.01 µM): 88.3%; viability, T/C (second compound 1 µM, first compound 0.00316 µM): 84.6%; viability, T/C (second compound 1 µM, first compound 0.01 µM): 87.2%; viability, T/C (second compound 3.16 µM, first compound 0.00316 µM): 20.6%; viability, T/C (second compound 3.16 µM, first compound 0.01 µM): 21.6%; viability, T/C [27]: 16.2%; viability, T/C (second compound 10 µM, first compound 0.00316 µM): 1.51%; viability, T/C (second compound 10 µM, first compound 0.01 µM): 1.55%; viability, T/C [30]: 1.75%; viability, T/C [31]: 1.51%; viability, T/C [32]: 1.2%; viability, T/C [33]: 1.31% |
